Test results taken from ChEMBL document CHEMBL5724914, “Linking interpersonal differences in gut microbiota composition and drug biotransformation activity” (2024).

Experiments:
[1] = (§1) The drug is tested on Z-019 corresponding to rat gut metagenome with ENA study accession number: PRJEB37062 and ENA sample accession number: ERS12561818 for biotransformation under anaerobic condition. The drug concentrations were measured over 9 timepoints collected between 0 and 24 hours of incubation by liquid-chromatography-coupled mass spectrometry (LC–MS); conditions: 2 µM
[2] = as §1, with “on Z-018” for “on Z-019”, “to pig” for “to rat”, “number: ERS12561817” for “number: ERS12561818”; conditions: 2 µM
[3] = as §1, with “on Z-016” for “on Z-019”, “to mouse” for “to rat”, “number: ERS12561815” for “number: ERS12561818”; conditions: 2 µM
[4] = as §1, with “Z-014” for “Z-019”, “ERS12561814” for “ERS12561818”; conditions: 2 µM
[5] = as §1, with “on Z-011” for “on Z-019”, “to mouse” for “to rat”, “number: ERS12561811” for “number: ERS12561818”; conditions: 2 µM
[6] = as §1, with “on Z-002” for “on Z-019”, “to rabbit” for “to rat”, “number: ERS12561802” for “number: ERS12561818”; conditions: 2 µM
[7] = as §1, with “on WLS-310” for “on Z-019”, “to human” for “to rat”, “number: ERS12561785” for “number: ERS12561818”; conditions: 2 µM
[8] = as §1, with “on WLS-220” for “on Z-019”, “to human” for “to rat”, “number: ERS12561769” for “number: ERS12561818”; conditions: 2 µM
[9] = as §1, with “on WLS-170” for “on Z-019”, “to human” for “to rat”, “number: ERS12561762” for “number: ERS12561818”; conditions: 2 µM
[10] = as §1, with “on WLS-082” for “on Z-019”, “to human” for “to rat”, “number: ERS12561751” for “number: ERS12561818”; conditions: 2 µM
[11] = as §1, with “on WLS-039” for “on Z-019”, “to human” for “to rat”, “number: ERS12561746” for “number: ERS12561818”; conditions: 2 µM
[12] = human gut metagenome, 24 h, 2 µM
[13] = human gut metagenome, 24 h, 2 µM; remark: listed apart in the source
[14] = human gut metagenome, 24 h, 2 µM; remark: listed apart in the source
[15] = human gut metagenome, 24 h, 2 µM; remark: listed apart in the source
[16] = human gut metagenome, 24 h, 2 µM; remark: listed apart in the source
[17] = human gut metagenome, 24 h, 2 µM; remark: listed apart in the source
[18] = human gut metagenome, 24 h, 2 µM; remark: listed apart in the source
[19] = human gut metagenome, 24 h, 2 µM; remark: listed apart in the source
[20] = human gut metagenome, 24 h, 2 µM; remark: listed apart in the source
Also: call rule not given here.

SMILES | Bacterial Biotransformation [1] | Bacterial Biotransformation [2] | Bacterial Biotransformation [3] | Bacterial Biotransformation [4] | Bacterial Biotransformation [5] | Bacterial Biotransformation [6] | Bacterial Biotransformation [7] | Bacterial Biotransformation [8] | Bacterial Biotransformation [9] | Bacterial Biotransformation [10] | Bacterial Biotransformation [11] | Bacterial Biotransformation [12] | Bacterial Biotransformation [13] | Bacterial Biotransformation [14] | Bacterial Biotransformation [15] | Bacterial Biotransformation [16] | Bacterial Biotransformation [17] | Bacterial Biotransformation [18] | Bacterial Biotransformation [19] | Bacterial Biotransformation [20]
CN1CCc2c(c3ccccc3n2Cc2ccccc2)C1.CN1CCc2c(c3ccccc3n2Cc2ccccc2)C1.O=S(=O)(O)c1cccc2c(S(=O)(=O)O)cccc12 | Compound NOT metabolized | Compound NOT metabolized | Compound NOT metabolized | Compound NOT metabolized | Compound NOT metabolized | Compound NOT metabolized | Compound NOT metabolized | Compound metabolized | Compound metabolized | Compound NOT metabolized | Compound metabolized | Compound metabolized | Compound metabolized | Compound metabolized | Compound NOT metabolized | Compound metabolized | Compound NOT metabolized | Compound NOT metabolized | Compound NOT metabolized | Compound NOT metabolized
CN1CC(=O)N2[C@H](c3ccc4c(c3)OCO4)c3[nH]c4ccccc4c3C[C@@H]2C1=O | Compound NOT metabolized | Compound metabolized | Compound metabolized | Compound NOT metabolized | Compound NOT metabolized | Compound metabolized | Compound metabolized | Compound metabolized | Compound metabolized | Compound metabolized | Compound NOT metabolized | Compound NOT metabolized | Compound metabolized | Compound metabolized | Compound NOT metabolized | Compound metabolized | Compound metabolized | Compound metabolized | Compound NOT metabolized | Compound NOT metabolized
NC12CC3CC(CC(C3)C1)C2 [AMANTADINE] | Compound NOT metabolized | Compound NOT metabolized | Compound NOT metabolized | Compound NOT metabolized | Compound NOT metabolized | Compound NOT metabolized | Compound NOT metabolized | Compound NOT metabolized | Compound metabolized | Compound NOT metabolized | Compound NOT metabolized | Compound NOT metabolized | Compound NOT metabolized | Compound NOT metabolized | Compound NOT metabolized | Compound NOT metabolized | Compound NOT metabolized | Compound NOT metabolized | Compound NOT metabolized | Compound NOT metabolized
O=P(O)(O)O.c1ccc(CN(CC2=NCCN2)c2ccccc2)cc1 [ANTAZOLINE PHOSPHATE] | Compound NOT metabolized | Compound NOT metabolized | Compound NOT metabolized | Compound NOT metabolized | Compound NOT metabolized | Compound metabolized | Compound NOT metabolized | Compound metabolized | Compound metabolized | Compound NOT metabolized | Compound NOT metabolized | Compound NOT metabolized | Compound NOT metabolized | Compound NOT metabolized | Compound NOT metabolized | Compound NOT metabolized | Compound NOT metabolized | Compound metabolized | Compound NOT metabolized | Compound NOT metabolized

More lines, now with the values ahead:

Bacterial Biotransformation [1] | Bacterial Biotransformation [2] | Bacterial Biotransformation [3] | Bacterial Biotransformation [4] | Bacterial Biotransformation [5] | Bacterial Biotransformation [6] | Bacterial Biotransformation [7] | Bacterial Biotransformation [8] | Bacterial Biotransformation [9] | Bacterial Biotransformation [10] | Bacterial Biotransformation [11] | Bacterial Biotransformation [12] | Bacterial Biotransformation [13] | Bacterial Biotransformation [14] | Bacterial Biotransformation [15] | Bacterial Biotransformation [16] | Bacterial Biotransformation [17] | Bacterial Biotransformation [18] | Bacterial Biotransformation [19] | Bacterial Biotransformation [20] | SMILES
Compound NOT metabolized | Compound metabolized | Compound metabolized | Compound metabolized | Compound metabolized | Compound metabolized | Compound metabolized | Compound metabolized | Compound metabolized | Compound metabolized | Compound metabolized | Compound metabolized | Compound metabolized | Compound metabolized | Compound metabolized | Compound metabolized | Compound metabolized | Compound metabolized | Compound NOT metabolized | Compound metabolized | CCCc1nc2c(C)cc(-c3nc4ccccc4n3C)cc2n1Cc1ccc(-c2ccccc2C(=O)O)cc1
Compound NOT metabolized | Compound NOT metabolized | Compound NOT metabolized | Compound NOT metabolized | Compound NOT metabolized | Compound NOT metabolized | Compound NOT metabolized | Compound NOT metabolized | Compound NOT metabolized | Compound NOT metabolized | Compound NOT metabolized | Compound NOT metabolized | Compound NOT metabolized | Compound NOT metabolized | Compound NOT metabolized | Compound NOT metabolized | Compound NOT metabolized | Compound NOT metabolized | Compound NOT metabolized | Compound NOT metabolized | Cc1cc2c(cc1S(N)(=O)=O)S(=O)(=O)CCC2
Compound NOT metabolized | Compound metabolized | Compound NOT metabolized | Compound NOT metabolized | Compound metabolized | Compound metabolized | Compound metabolized | Compound metabolized | Compound metabolized | Compound metabolized | Compound NOT metabolized | Compound metabolized | Compound NOT metabolized | Compound metabolized | Compound metabolized | Compound metabolized | Compound metabolized | Compound metabolized | Compound NOT metabolized | Compound NOT metabolized | COc1cc2nc(N(C)CCCNC(=O)C3CCCO3)nc(N)c2cc1OC (stereo not given) [ALFUZOSIN]
Compound NOT metabolized | Compound NOT metabolized | Compound NOT metabolized | Compound NOT metabolized | Compound NOT metabolized | Compound metabolized | Compound metabolized | Compound metabolized | Compound metabolized | Compound NOT metabolized | Compound NOT metabolized | Compound metabolized | Compound metabolized | Compound metabolized | Compound NOT metabolized | Compound NOT metabolized | Compound NOT metabolized | Compound metabolized | Compound NOT metabolized | Compound NOT metabolized | CC(C)(C#N)c1cc(Cn2cncn2)cc(C(C)(C)C#N)c1 [ANASTROZOLE]
